One assay has as its target T1, human IKKβ (Homo sapiens, UniProt O14920).
T1 construct: FLAG (N)
T1 sequence (O14920 1-756): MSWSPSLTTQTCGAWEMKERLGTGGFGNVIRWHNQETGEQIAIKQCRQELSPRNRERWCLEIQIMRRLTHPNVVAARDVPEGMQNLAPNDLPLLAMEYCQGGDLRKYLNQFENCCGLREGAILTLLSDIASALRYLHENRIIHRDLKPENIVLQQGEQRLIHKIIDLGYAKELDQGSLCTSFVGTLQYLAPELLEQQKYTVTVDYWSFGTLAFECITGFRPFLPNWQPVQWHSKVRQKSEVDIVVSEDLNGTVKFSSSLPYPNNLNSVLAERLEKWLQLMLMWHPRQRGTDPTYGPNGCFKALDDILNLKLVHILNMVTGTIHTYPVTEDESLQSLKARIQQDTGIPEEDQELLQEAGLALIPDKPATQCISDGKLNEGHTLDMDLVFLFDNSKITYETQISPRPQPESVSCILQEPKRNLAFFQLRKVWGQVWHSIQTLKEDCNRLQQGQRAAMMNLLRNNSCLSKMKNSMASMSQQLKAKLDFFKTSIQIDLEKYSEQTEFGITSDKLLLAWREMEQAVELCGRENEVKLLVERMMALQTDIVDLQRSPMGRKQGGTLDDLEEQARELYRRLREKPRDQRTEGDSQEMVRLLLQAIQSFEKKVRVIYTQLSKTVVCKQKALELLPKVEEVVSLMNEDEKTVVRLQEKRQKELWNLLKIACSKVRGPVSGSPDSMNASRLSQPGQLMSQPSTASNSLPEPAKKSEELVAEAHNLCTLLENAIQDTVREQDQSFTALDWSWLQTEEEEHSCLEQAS
As to the kind of experiment: IKKβ kinase inhibition assay (phosphorylation of IκBα substrate, 33P-ATP). Format: biochemical. The settings on record: flag-tagged human IKKβ 0.9 μg/ml, GST-IκBα (1-54) 53 μg/ml, 250 nM ATP, 1 hour at 25° C. On the procedure:
(§1) The inhibition of IKKα and IKKβ by the compounds of the present invention was determined with the following assay that measures the phosphorylation of the IκBα substrate by the respective kinases. The enzymes used in the assay were N-terminally flag-tagged versions of the human IKKβ or IKKα and the substrate was a GST fusion protein with IκBα (amino acids 1-54).
(§2) The reaction mixtures (60 μl) contained 20 mM HEPES pH 7.5, 10 mM MgCl2, 2 mM MnCl2, 100 mM NaCl, 100 μM Na3VO4, 20 mM β-glycerophosphate, 1 mM DTT, 2% DMSO, 250 nM ATP, 0.4 nM [^33P]ATP (specific activity, 3000 Ci/mmol), IκBα substrate, IKK enzyme and test compound. The reaction mixtures contained either 3.6 μg/ml IKKα and 245 μg/ml IκBα or 0.9 μg/ml IKKβ and 53 μg/ml IκBα.
(§3) Reactions were initiated by adding a solution of IκBα substrate and ATP to polypropylene plates containing IKK enzyme that was pre-incubated for 5 minutes with test compound. Then the reaction mixtures were incubated for 1 hour at 25° C., placed on ice and quenched by the addition of 150 μl 10% trichloroacetic acid and 5% disodium pyrophosphate. After mixing, the entire contents of the quenched reaction mixtures were transferred to a pre-wetted Packard UniFilter filtration plate, aspirated and washed 6 times with 250 μl of ddH2O using the Packard Filtermate Harvester. Filtration plates were then air dried, supplemented with 40 μl of Microscint 20 scintillation fluid and the ^33P-labeled reaction products were quantified using the Packard TopCount scintillation counter.
(§4) Compounds were tested in three-fold serial dilutions and inhibitor concentrations to achieve 50% inhibition of enzyme activity (i.e., IC50) were derived from dose-reponse curves using SAS software (SAS Institute, Cary N.C.). A non-linear regression analysis based on the Hill equation was applied to the percent inhibition versus concentration data. In all cases, compound concentrations were verified by HPLC.

A further assay concerns the target T2, human IKKα (Homo sapiens, UniProt O15111).
T2 construct: FLAG (N)
T2 sequence (O15111 1-745): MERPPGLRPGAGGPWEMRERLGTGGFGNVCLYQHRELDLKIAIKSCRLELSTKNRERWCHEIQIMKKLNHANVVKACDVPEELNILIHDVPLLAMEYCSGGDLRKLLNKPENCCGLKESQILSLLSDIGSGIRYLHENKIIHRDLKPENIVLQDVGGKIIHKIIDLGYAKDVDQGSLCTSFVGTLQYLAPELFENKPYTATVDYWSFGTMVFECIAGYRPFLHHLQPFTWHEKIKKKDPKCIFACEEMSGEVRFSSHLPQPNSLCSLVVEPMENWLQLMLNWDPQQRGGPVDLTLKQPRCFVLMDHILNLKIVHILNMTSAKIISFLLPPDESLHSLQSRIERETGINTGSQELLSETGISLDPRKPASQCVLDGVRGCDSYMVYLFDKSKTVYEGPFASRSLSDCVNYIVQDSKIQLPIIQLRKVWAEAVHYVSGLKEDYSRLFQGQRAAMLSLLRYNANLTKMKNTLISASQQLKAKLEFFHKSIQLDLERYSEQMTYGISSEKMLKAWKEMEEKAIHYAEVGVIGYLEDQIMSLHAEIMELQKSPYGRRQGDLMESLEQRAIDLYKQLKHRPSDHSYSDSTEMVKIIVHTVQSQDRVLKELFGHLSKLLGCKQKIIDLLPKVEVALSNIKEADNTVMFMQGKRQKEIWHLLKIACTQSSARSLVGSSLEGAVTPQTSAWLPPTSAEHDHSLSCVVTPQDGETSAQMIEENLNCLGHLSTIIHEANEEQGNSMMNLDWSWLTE
In words: IKKα kinase inhibition assay (phosphorylation of IκBα substrate, 33P-ATP). The class given is biochemical. The settings on record: flag-tagged human IKKα 3.6 μg/ml, GST-IκBα (1-54) 245 μg/ml, 250 nM ATP, 1 hour at 25° C. On the procedure: as §1, §2, §3, §4

The record followed here is US6974870B2, “Substituted 3-amino-thieno [2,3-b]pyridine-2-carboxylic acid amide compounds and processes for preparing and their uses” (Boehringer Ingelheim Phamaceuticals, Inc., priority 2002, dated 2005).

One may read the IC50 as the concentration that gives 50% inhibition. On to `CNC1CCN(c2cc(C(F)F)c3c(N)c(C(N)=O)sc3n2)CC1` [3-Amino-4-difluoromethyl-6-(4-methylamino-piperidin-1-yl)-thieno[2,3-b]pyridine-2-carboxylic acid amide], for which the IC50 against human IKKβ was below 1 µM; against human IKKα it was at most 10 µM. For `CCCc1cc(N2CCC(NCc3nnn[nH]3)CC2)nc2sc(C(N)=O)c(N)c12` [3-Amino-4-propyl-6-{4-[(1H-tetrazol-5-ylmethyl)-amino]-piperidin-1-yl}-thieno[2,3-b] pyridine-2-carboxylic acid amide] the same measures were below 1 µM and at most 10 µM. In the case of `NC(=O)c1sc2nc(N3CCC(N)CC3)cc(/C=C/c3ccncc3)c2c1N` [3-Amino-6-(4-amino-piperidin-1-yl)-4-((E)-2-pyridin-4-yl-vinyl)-thieno[2,3-b]pyridine-2-carboxylic acid amide], the IC50 is below 1 µM against human IKKβ and at most 10 µM against human IKKα. On to `NC(=O)c1sc2nc(N3CCC(N)CC3)cc(C3CC3)c2c1N` [3-Amino-6-(4-amino-piperidin-1-yl)-4-cyclopropyl-thieno[2,3-b] pyridine-2-carboxylic acid amide], for which the IC50 against human IKKβ is below 1 µM; against human IKKα, at most 10 µM. As to `CCc1cc(N2CCC(N)CC2)nc2sc(C(N)=O)c(N)c12` [3-Amino-6-(4-amino-piperidin-1-yl)-4-ethyl-thieno[2,3-b] pyridine-2-carboxylic acid amide], the IC50 on human IKKβ is below 1 µM; on human IKKα, at most 10 µM.

On to `CC(C)c1cc(N2CCC(N)CC2)nc2sc(C(N)=O)c(N)c12` [3-Amino-6-(4-amino-piperidin-1-yl)-4-isopropyl-thieno[2,3-b] pyridine-2-carboxylic acid amide], for which the IC50 on human IKKβ was below 1 µM; against human IKKα, at most 10 µM. For `Cc1cc(N2CCC(N)CC2)nc2sc(C(N)=O)c(N)c12` [3-Amino-6-(4-amino-piperidin-1-yl)-4-methyl-thieno[2,3-b] pyridine-2-carboxylic acid amide] the same measures were below 1 µM and at most 10 µM.

Turning to `CNC(=O)c1cc(N2CCC(N)CC2)nc2sc(C(N)=O)c(N)c12` [3-Amino-6-(4-amino-piperidin-1-yl)-thieno[2,3-b]pyridine-2,4-dicarboxylic acid 2-amide 4-methylamide], the IC50 against human IKKβ was below 1 µM; against human IKKα, at most 10 µM. For `NC(=O)c1sc2nc(N3CCC(N)CC3)cc(C(=O)Nc3ccccc3)c2c1N` [3-Amino-6-(4-amino-piperidin-1-yl)-thieno[2,3-b]pyridine-2,4-dicarboxylic acid 2-amide 4-phenylamide] the same measures were below 1 µM and at most 10 µM. `NC(=O)c1sc2nc(N3CCC(N)CC3)cc(C(=O)Nc3cccnc3)c2c1N` [3-Amino-6-(4-amino-piperidin-1-yl)-thieno[2,3-b]pyridine-2,4-dicarboxylic acid 2-amide 4-pyridin-3-ylamide]: the concentration for half-maximal inhibition (IC50) on human IKKβ is below 1 µM; at human IKKα, at most 10 µM. For `NC(=O)c1sc2nc(N3CCC(N)CC3)cc(C(=O)Nc3ccncc3)c2c1N` [3-Amino-6-(4-amino-piperidin-1-yl)-thieno[2,3-b]pyridine-2,4-dicarboxylic acid 2-amide 4-pyridin-4-ylamide] the same measures were below 1 µM and at most 10 µM. As for `NC(=O)c1sc2nc(N3CCC(N)CC3)cc(C(N)=O)c2c1N` [3-Amino-6-(4-amino-piperidin-1-yl)-thieno[2,3-b]pyridine-2,4-dicarboxylic acid diamide], the values for the IC50 against human IKKβ and against human IKKα were below 1 µM and at most 10 µM, respectively. On to `CCCc1cc(N2CCC(NC3CC3)CC2)nc2sc(C(N)=O)c(N)c12` [3-Amino-6-(4-cyclopropylamino-piperidin-1-yl)-4-propyl-thieno[2,3-b] pyridine-2-carboxylic acid amide], for which the IC50 against human IKKβ was below 1 µM; against human IKKα, at most 10 µM. For `CNC1CCN(c2cc(OCC(F)(F)F)c3c(N)c(C(N)=O)sc3n2)CC1` [3-Amino-6-(4-methylamino-piperidin-1-yl)-4-(2,2,2-trifluoro-ethoxy)-thieno[2,3-b]pyridine-2-carboxylic acid amide] the same measures were below 1 µM and at most 10 µM.

Consider `Cc1cc(-c2ccc([N+](=O)[O-])cc2)c2c(N)c(C(N)=O)sc2n1` [3-Amino-6-methyl-4-(4-nitro-phenyl)-thieno[2,3-b]pyridine-2-carboxylic acid amide], for which the IC50 at human IKKα was at most 10 µM. Same read-out and setting: next, `Cc1cc(/C=C/c2ccccc2)c2c(N)c(C(N)=O)sc2n1` [3-Amino-6-methyl-4-((E)-styryl)-thieno[2,3-b]pyridine-2-carboxylic acid amide]: at most 10 µM; `NC(=O)c1sc2nc(N3CCC(NCC(O)c4ccc(F)c(F)c4)CC3)cc(C(F)(F)F)c2c1N` (centres unmarked) [3-Amino-6-{4-[2-(3,4-difluoro-phenyl)-2-hydroxy-ethylamino]-piperidin-1-yl}-4-trifluoromethyl-thieno[2,3-b]pyridine-2-carboxylic acid amide]: at most 10 µM; `NC(=O)c1sc2nc(N3CCC(NCC(O)c4ccc(C(=O)NCc5ccccc5)cc4)CC3)cc(C(F)(F)F)c2c1N` (centres unmarked) [3-Amino-6-{4-[2-(4-benzylcarbamoyl-phenyl)-2-hydroxy-ethylamino]-piperidin-1-yl}-4-trifluoromethyl-thieno[2,3-b]pyridine-2-carboxylic acid amide]: at most 10 µM. On the same count and under the same terms, next, `CCCc1cc(N2CCC(NCC(O)c3ccc(NS(C)(=O)=O)cc3)CC2)nc2sc(C(N)=O)c(N)c12` (centres unmarked) [3-Amino-6-{4-[2-hydroxy-2-(4-methanesulfonylamino-phenyl)-ethylamino]-piperidin-1-yl}-4-propyl-thieno[2,3-b] pyridine-2-carboxylic acid amide]: at most 10 µM. The same measure, in the same setting: next, `CCCc1cc(N2CCNCC2)nc2sc(C(N)=O)c(N)c12` [3-amino-6-piperazin-1-yl-4-propyl-thieno[2,3-b]pyridine-2-carboxylic acid amide]: at most 10 µM; `NC(=O)c1sc2nc(N3CCC(N)CC3)cc(C(=O)NCCCN3CCOCC3)c2c1N` [33-Amino-6-(4-amino-piperidin-1-yl)-thieno[2,3-b]pyridine-2,4-dicarboxylic acid 2-amide 4-[(3-morpholin-4-yl-propyl)-amide]]: at most 10 µM.
